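Following 48 hours of exposure in 96-well plates, responses at five concentrations were used to interpolate endpoints linearly. TGI: concentration producing complete growth inhibition.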
Assays:
Experiment in all cases: NCI-60 cell line screen, 48 h
A498 renal = system: A498 renal
ACHN renal = system: ACHN renal
CAKI-1 renal = system: CAKI-1 renal
CCRF-CEM leukemia = system: CCRF-CEM leukemia
COLO 205 colon = system: COLO 205 colon
DLD-1 colon = system: DLD-1 colon
EKVX NSCLC = system: EKVX NSCLC
HCT-15 colon = system: HCT-15 colon
HL-60(TB) leukemia = system: HL-60(TB) leukemia
HOP-18 NSCLC = system: HOP-18 NSCLC
HOP-92 NSCLC = system: HOP-92 NSCLC
IGROV1 ovarian = system: IGROV1 ovarian
K-562 leukemia = system: K-562 leukemia
KM20L2 colon = system: KM20L2 colon
LOX IMVI melanoma = system: LOX IMVI melanoma
LXFL 529 NSCLC = system: LXFL 529 NSCLC
M14 melanoma = system: M14 melanoma
M19-MEL melanoma = system: M19-MEL melanoma
MALME-3M melanoma = system: MALME-3M melanoma
MOLT-4 leukemia = system: MOLT-4 leukemia
NCI-H226 lung = system: NCI-H226 lung
NCI-H23 lung = system: NCI-H23 lung
NCI-H460 lung = system: NCI-H460 lung
NCI-H522 lung = system: NCI-H522 lung
OVCAR-3 ovarian = system: OVCAR-3 ovarian
OVCAR-8 ovarian = system: OVCAR-8 ovarian
RPMI-8226 leukemia = system: RPMI-8226 leukemia
RXF-631 renal = system: RXF-631 renal
SF-268 CNS = system: SF-268 CNS
SF-295 CNS = system: SF-295 CNS
SF-539 CNS = system: SF-539 CNS
SK-MEL-2 melanoma = system: SK-MEL-2 melanoma
SK-MEL-28 melanoma = system: SK-MEL-28 melanoma
SK-MEL-5 melanoma = system: SK-MEL-5 melanoma
SK-OV-3 ovarian = system: SK-OV-3 ovarian
SN12C renal = system: SN12C renal
SNB-19 CNS = system: SNB-19 CNS
SNB-75 CNS = system: SNB-75 CNS
SNB-78 CNS = system: SNB-78 CNS
SW-620 colon = system: SW-620 colon
TK-10 renal = system: TK-10 renal
U251 CNS = system: U251 CNS
UACC-62 melanoma = system: UACC-62 melanoma
UO-31 renal = system: UO-31 renal
XF 498 CNS = system: XF 498 CNS
786-0 renal = system: 786-0 renal
A549 NSCLC = system: A549 NSCLC
DMS 114 small cell lung = system: DMS 114 small cell lung
DMS 273 small cell lung = system: DMS 273 small cell lung
HCC-2998 colon = system: HCC-2998 colon
HCT-116 colon = system: HCT-116 colon
HOP-62 NSCLC = system: HOP-62 NSCLC
HT29 colon = system: HT29 colon
KM12 colon = system: KM12 colon
OVCAR-4 ovarian = system: OVCAR-4 ovarian
OVCAR-5 ovarian = system: OVCAR-5 ovarian
RXF 393 renal = system: RXF 393 renal
SR leukemia = system: SR leukemia
UACC-257 melanoma = system: UACC-257 melanoma

COc1cccc(C2C(C(=O)O)=C(CO)Oc3cc4c(cc32)OCO4)c1OC (centres undefined)
TGI (A498 renal): > 100 µM
TGI (ACHN renal): > 100 µM
TGI (CAKI-1 renal): > 100 µM
TGI (CCRF-CEM leukemia): > 100 µM
TGI (COLO 205 colon): > 100 µM
TGI (DLD-1 colon): > 100 µM
TGI (EKVX NSCLC): > 100 µM
TGI (HCT-15 colon): > 100 µM
TGI (HL-60(TB) leukemia): > 100 µM
TGI (HOP-18 NSCLC): > 100 µM
TGI (HOP-92 NSCLC): > 100 µM
TGI (IGROV1 ovarian): > 100 µM
TGI (K-562 leukemia): > 100 µM
TGI (KM20L2 colon): > 100 µM
TGI (LOX IMVI melanoma): > 100 µM
TGI (LXFL 529 NSCLC): > 100 µM
TGI (M14 melanoma): > 100 µM
TGI (M19-MEL melanoma): > 100 µM
TGI (MALME-3M melanoma): > 100 µM
TGI (MOLT-4 leukemia): > 100 µM
TGI (NCI-H226 lung): > 100 µM
TGI (NCI-H23 lung): > 100 µM
TGI (NCI-H460 lung): > 100 µM
TGI (NCI-H522 lung): > 100 µM
TGI (OVCAR-3 ovarian): > 100 µM
TGI (OVCAR-8 ovarian): > 100 µM
TGI (RPMI-8226 leukemia): > 100 µM
TGI (RXF-631 renal): > 100 µM
TGI (SF-268 CNS): > 100 µM
TGI (SF-295 CNS): > 100 µM
TGI (SF-539 CNS): > 100 µM
TGI (SK-MEL-2 melanoma): > 100 µM
TGI (SK-MEL-28 melanoma): > 100 µM
TGI (SK-MEL-5 melanoma): > 100 µM
TGI (SK-OV-3 ovarian): > 100 µM
TGI (SN12C renal): > 100 µM
TGI (SNB-19 CNS): > 100 µM
TGI (SNB-75 CNS): > 100 µM
TGI (SNB-78 CNS): > 100 µM
TGI (SW-620 colon): > 100 µM
TGI (TK-10 renal): > 100 µM
TGI (U251 CNS): > 100 µM
TGI (UACC-62 melanoma): > 100 µM
TGI (UO-31 renal): > 100 µM
TGI (XF 498 CNS): 94.7 µM

COc1cc(/C=N/c2nncs2)ccc1O
TGI (786-0 renal): > 100 µM
TGI (A498 renal): > 100 µM
TGI (A549 NSCLC): > 100 µM
TGI (ACHN renal): > 100 µM
TGI (CAKI-1 renal): > 100 µM
TGI (CCRF-CEM leukemia): > 100 µM
TGI (DMS 114 small cell lung): > 100 µM
TGI (DMS 273 small cell lung): > 100 µM
TGI (EKVX NSCLC): > 100 µM
TGI (HCC-2998 colon): > 100 µM
TGI (HCT-116 colon): > 100 µM
TGI (HCT-15 colon): > 100 µM
TGI (HL-60(TB) leukemia): > 100 µM
TGI (HOP-18 NSCLC): > 100 µM
TGI (HOP-62 NSCLC): > 100 µM
TGI (HOP-92 NSCLC): > 100 µM
TGI (HT29 colon): > 100 µM
TGI (IGROV1 ovarian): > 100 µM
TGI (K-562 leukemia): > 100 µM
TGI (KM12 colon): > 100 µM
TGI (KM20L2 colon): > 100 µM
TGI (LXFL 529 NSCLC): > 100 µM
TGI (M14 melanoma): > 100 µM
TGI (M19-MEL melanoma): > 100 µM
TGI (MALME-3M melanoma): > 100 µM
TGI (MOLT-4 leukemia): > 100 µM
TGI (NCI-H226 lung): > 100 µM
TGI (NCI-H23 lung): > 100 µM
TGI (NCI-H460 lung): > 100 µM
TGI (OVCAR-4 ovarian): > 100 µM
TGI (OVCAR-5 ovarian): > 100 µM
TGI (OVCAR-8 ovarian): > 100 µM
TGI (RPMI-8226 leukemia): > 100 µM
TGI (RXF 393 renal): > 100 µM
TGI (RXF-631 renal): > 100 µM
TGI (SF-268 CNS): > 100 µM
TGI (SF-295 CNS): > 100 µM
TGI (SF-539 CNS): > 100 µM
TGI (SK-MEL-2 melanoma): > 100 µM
TGI (SK-MEL-28 melanoma): > 100 µM
TGI (SK-MEL-5 melanoma): > 100 µM
TGI (SK-OV-3 ovarian): > 100 µM
TGI (SN12C renal): > 100 µM
TGI (SNB-19 CNS): > 100 µM
TGI (SNB-75 CNS): > 100 µM
TGI (SNB-78 CNS): > 100 µM
TGI (SR leukemia): > 100 µM
TGI (SW-620 colon): > 100 µM
TGI (TK-10 renal): > 100 µM
TGI (U251 CNS): > 100 µM
TGI (UACC-257 melanoma): > 100 µM
TGI (UACC-62 melanoma): > 100 µM
TGI (UO-31 renal): > 100 µM
TGI (XF 498 CNS): > 100 µM

Source: PubChem BioAssay (NCI)
